The record followed here is patent publication US6265551A, “Form of dipeptidylpeptidase IV (CD26) found in human serum, antibodies thereto, and uses thereof” (Dana-Farber Cancer Institute, Inc., priority 1996, dated 2001).

Where a SMILES comes first, the peptide text is derived from it. The star is where a group is joined. pNA = O=[N+]([O-])c1ccc(N*)cc1

The target in assay [1] is recombinant soluble CD26 (rsCD26), full extracellular domain of human T cell membrane CD26/DPPIV, 105 kDa form, from transfected CHO cells (Homo sapiens, UniProt P27487). Description: DPPIV enzyme activity: Gly-Pro-pNA hydrolysis, Michaelis-Menten kinetics and inhibition. To be noted: U = enzyme cleaving 1 mmol Gly-Pro-pNA/min at pH7.6 and 20° C.
For assay [2], the system named is serum DPPIV (soluble 175 kDa form of DPPIV/CD26, DPPT-L) purified from normal human serum. The assay is described as above. In kind it is biochemical. As for the experimental part:
The DPPIV enzyme activities of the rsCD26 and serum DPPIV were analyzed by Michaelis-Menten kinetics by assessing kinetics of hydrolysis of substrate at different concentrations. […] To further exclude the possibility that we had purified irrelevant aminopeptidases which, working in concert or by sequential hydrolysis, could release the pNA chromophore from substrate, we tested a number of substrates which could be hydrolyzed by non-DPPIV aminopeptidases. One candidate for sequential hydrolysis is aminopeptidase M (3.4.11.2), but no hydrolysis of Ala-pNA, Arg-pNA or Leu-pNA was observed and activity by aminopolypeptidase (3.4.11.14) may be similarly excluded. The substrate succinyl-Gly-Pro-pNA was also not hydrolyzed. The only substrate apart from the dipeptide chromatogen Gly-Pro-pNA which could be hydrolyzed was Val-Ala-pNA, which was cleaved by both the serum DPPIV and rsCD26 (relative to rate of hydrolysis of Gly-Pro-pNA, hydrolysis of Val-Ala-pNA was 0.098 and 0.079, for rsCD26 and serum DPPIV, respectively). Although DPPIV primarily hydrolyses dipeptides with a proline in the penultimate position, it is well documented that alanine in the penultimate position may also render a dipeptide sequence susceptible to cleavage by DPPIV (8). […]
DPPIV activity: The primary substrate used for determining DPPIV activity in all assays was Gly-Pro-p-nitroanilide (Gly-Pro-pNA; Sigma), which is hydrolyzed by DPPIV to release pNA absorbing strongly at 405 nm. […] Inhibition of the hydrolysis of Gly-Pro-pNA was determined in the presence of the specific DPPIV inhibitor Diprotin A (Bachem, King of Prussia, Pa.). […] The pH optimum was determined substituting phosphate buffer (100 mM, pH4.5-pH9) in place of standard incubation buffer.
Serum DPPIV: Serum DPPIV was prepared by isolating from 100 ml of pooled normal human male AB serum the fraction of protein precipitated by 50-70% saturated ammonium sulfate. […] The DPPIV activity was eluted by a 0-0.5M NaCl gradient in equilibration buffer and all DPPIV activity was found in the 10 mM-50 mM NaCl eluate (determined by conductance). […]

Chain of recombinant soluble CD26 (rsCD26), full extracellular domain of human T cell membrane CD26/DPPIV, 105 kDa form, from transfected CHO cells (P27487 29-766 limits assumed): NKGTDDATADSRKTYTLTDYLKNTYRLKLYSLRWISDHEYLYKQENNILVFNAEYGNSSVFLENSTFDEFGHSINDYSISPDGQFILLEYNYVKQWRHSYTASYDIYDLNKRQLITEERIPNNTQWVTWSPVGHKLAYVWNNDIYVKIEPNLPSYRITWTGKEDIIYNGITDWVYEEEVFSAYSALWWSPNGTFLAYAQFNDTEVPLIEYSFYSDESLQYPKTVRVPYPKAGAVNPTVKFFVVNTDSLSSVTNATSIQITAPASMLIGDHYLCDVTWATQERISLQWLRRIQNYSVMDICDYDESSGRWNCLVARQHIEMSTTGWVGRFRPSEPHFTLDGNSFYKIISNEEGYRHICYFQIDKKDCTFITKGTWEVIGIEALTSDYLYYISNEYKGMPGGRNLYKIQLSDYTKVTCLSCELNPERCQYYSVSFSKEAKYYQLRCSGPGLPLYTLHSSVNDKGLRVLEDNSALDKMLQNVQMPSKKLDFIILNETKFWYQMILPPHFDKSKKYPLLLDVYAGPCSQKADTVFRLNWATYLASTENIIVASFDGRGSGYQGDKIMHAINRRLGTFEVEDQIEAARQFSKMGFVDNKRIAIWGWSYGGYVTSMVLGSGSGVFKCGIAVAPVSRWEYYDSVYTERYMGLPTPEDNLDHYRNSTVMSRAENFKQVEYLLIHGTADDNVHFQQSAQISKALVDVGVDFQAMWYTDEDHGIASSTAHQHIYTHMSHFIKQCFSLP

For the compound `NCC(=O)N1CCC[C@H]1C(=O)Nc1ccc([N+](=O)[O-])cc1` [Gly-Pro-pNA, Gly-Pro-p-nitroanilide] (H-Gly-Pro-pNA), the “Vmax, Gly-Pro-pNA as substrate” value in assay [1] is recorded as 1.52 U/nmol rsCD26; in assay [2] (U = enzyme cleaving 1 mmol Gly-Pro-pNA/min at pH7.6 and 20° C.) it was 0.65 U/nmol serum DPPIV. In addition, in assay [2] (Lineweaver-Burke transformation, substrate at different concentrations), the Michaelis constant (Km) worked out at 280 µM.
As for `CC[C@H](C)[C@H](N)C(=O)N1CCC[C@H]1C(=O)N[C@H](C(=O)O)[C@@H](C)CC` [Diprotin A], the IC50 in assay [2] (read-out: IC50 (Diprotin A), inhibition of the hydrolysis of Gly-Pro-pNA) is 250 µM.

Broadly, the Km is the concentration of substrate that gives half-maximal velocity. A word on the IC50: it is the concentration at which inhibition is half-maximal.
